# Experimental data published in US20230183640A1, “METABOLIC INHIBITORS WITH EFFICACY FOR INHIBITING SULFIDE PRODUCTION IN HARSH ENVIRONMENTS” (MC (US) 3 LLC, priority 2020, published 2023).
# Experiments:
# Experiment in all cases: Log (Growth) efficacy in aerobic conditions, non-SRB bacteria
# Assay type in all cases: cell-based
# [1] = system: Enterobacter aerogenes 13048
# Experimental: (§1) 24-hour cultures were made of ATCC Escherichia coli 8739, Pseudomonas aeruginosa 15442, Enterobacter aerogenes 13048, and Klebsiella pneumoniae 13883. The cultures were prepared by taking a loop of a pure bacterial colony and inoculating 10 mL of TSB. These were grown for 24 hours at 30° C.
# (§2) Following the 24-hour incubation, 600 microliters (μL) were taken from each culture and optical density (OD) was measured using a Thermofisher Spectronic 200 Spectrophotometer at 600 nm. Each culture was diluted to 0.05 OD600 in fresh Phosphate Buffered Saline (PBS). Using these cultures, two deep well plates were prepared. Edge wells were not used due to their inherent variability and evaporation of the media. Each of the components were added at their respective concentrations for a final volume of […] per well. In Table 8, the concentrations of the compound C1 used for the experiments are listed. Each experiment was done with at least three replicates for different treatments and non-treatment controls. Plates were then sealed with a titer-top and incubated in an incubator at 30° C.
# (§3) Enumerations were done at each time point, which included 0 hour, 1 hour, 4 hours and 24 hours. Enumeration plates were made to determine the log growth in each dosed sample. For this process, enumeration plates were prepared by adding 180 μL fresh TSB. 20 μL was taken from each well of the challenge plates and transferred to the enumeration plates using a 20-200 μL multichannel pipette. Enumeration plates were mixed three times using the multichannel pipette and serial diluted down the plate tenfold (20 μL into 180 μL). This serial dilution process was repeated for all challenge plate rows giving a total of 6 enumeration plates. These enumeration plates were read after 24-hours and by counting the number of turbid wells in a row.
# Escherichia coli 8739 = system: Escherichia coli 8739
# Experimental: as §1, §2, §3
# [2] = system: Klebsiella pneumoniae 13883
# Experimental: as §1, §2, §3
# [3] = system: Pseudomonas aeruginosa 15442
# Experimental: as §1, §2, §3
smiles,measurement,setting,value
O=C(CN1C(=O)c2cccc3cccc(c23)C1=O)NO [C1],Log (Growth),"[1]; 0 hours, 6.25 PPM",7.667
same,Log (Growth),"[1]; 0 hours, 12.5 PPM",8.000
same,Log (Growth),"[1]; 0 hours, 25 PPM",7.333
same,Log (Growth),"[1]; 0 hours, 50 PPM",7.667
same,Log (Growth),"[1]; 0 hours, 100 PPM",7.000
same,Log (Growth),"[1]; 0 hours, 200 PPM",7.667
same,Log (Growth),"[1]; 1 hour, 6.25 PPM",7.667
same,Log (Growth),"[1]; 1 hour, 12.5 PPM",8.000
same,Log (Growth),"[1]; 1 hour, 25 PPM",7.333
same,Log (Growth),"[1]; 1 hour, 50 PPM",7.000
same,Log (Growth),"[1]; 1 hour, 100 PPM",7.333
same,Log (Growth),"[1]; 1 hour, 200 PPM",8.000
same,Log (Growth),"[1]; 4 hours, 6.25 PPM",7.667
same,Log (Growth),"[1]; 4 hours, 12.5 PPM",7.667
same,Log (Growth),"[1]; 4 hours, 25 PPM",7.667
same,Log (Growth),"[1]; 4 hours, 50 PPM",7.333
same,Log (Growth),"[1]; 4 hours, 100 PPM",8.000
same,Log (Growth),"[1]; 4 hours, 200 PPM",7.000
same,Log (Growth),"[1]; 24 hours, 6.25 PPM",6.667
same,Log (Growth),"[1]; 24 hours, 12.5 PPM",7.333
same,Log (Growth),"[1]; 24 hours, 25 PPM",7.000
same,Log (Growth),"[1]; 24 hours, 50 PPM",6.667
same,Log (Growth),"[1]; 24 hours, 100 PPM",7.000
same,Log (Growth),"[1]; 24 hours, 200 PPM",7.333
same,Log (Growth),"Escherichia coli 8739; 0 hours, 6.25 PPM",7.000
same,Log (Growth),"Escherichia coli 8739; 0 hours, 12.5 PPM",6.667
same,Log (Growth),"Escherichia coli 8739; 0 hours, 25 PPM",7.000
same,Log (Growth),"Escherichia coli 8739; 0 hours, 50 PPM",7.333
same,Log (Growth),"Escherichia coli 8739; 0 hours, 100 PPM",7.000
same,Log (Growth),"Escherichia coli 8739; 0 hours, 200 PPM",7.000
same,Log (Growth),"Escherichia coli 8739; 1 hour, 6.25 PPM",7.000
same,Log (Growth),"Escherichia coli 8739; 1 hour, 12.5 PPM",8.000
same,Log (Growth),"Escherichia coli 8739; 1 hour, 25 PPM",7.333
same,Log (Growth),"Escherichia coli 8739; 1 hour, 50 PPM",6.333
same,Log (Growth),"Escherichia coli 8739; 1 hour, 100 PPM",6.333
same,Log (Growth),"Escherichia coli 8739; 1 hour, 200 PPM",6.333
same,Log (Growth),"Escherichia coli 8739; 4 hours, 6.25 PPM",7.000
same,Log (Growth),"Escherichia coli 8739; 4 hours, 12.5 PPM",7.333
same,Log (Growth),"Escherichia coli 8739; 4 hours, 25 PPM",7.000
same,Log (Growth),"Escherichia coli 8739; 4 hours, 50 PPM",6.667
same,Log (Growth),"Escherichia coli 8739; 4 hours, 100 PPM",7.000
same,Log (Growth),"Escherichia coli 8739; 4 hours, 200 PPM",6.667
same,Log (Growth),"Escherichia coli 8739; 24 hours, 6.25 PPM",6.333
same,Log (Growth),"Escherichia coli 8739; 24 hours, 12.5 PPM",7.333
same,Log (Growth),"Escherichia coli 8739; 24 hours, 25 PPM",6.667
same,Log (Growth),"Escherichia coli 8739; 24 hours, 50 PPM",7.000
same,Log (Growth),"Escherichia coli 8739; 24 hours, 100 PPM",6.667
same,Log (Growth),"Escherichia coli 8739; 24 hours, 200 PPM",7.000
same,Log (Growth),"[2]; 0 hours, 6.25 PPM",7.667
same,Log (Growth),"[2]; 0 hours, 12.5 PPM",6.333
same,Log (Growth),"[2]; 0 hours, 25 PPM",6.667
same,Log (Growth),"[2]; 0 hours, 50 PPM",6.667
same,Log (Growth),"[2]; 0 hours, 100 PPM",6.667
same,Log (Growth),"[2]; 0 hours, 200 PPM",6.333
same,Log (Growth),"[2]; 1 hour, 6.25 PPM",6.333
same,Log (Growth),"[2]; 1 hour, 12.5 PPM",8.000
same,Log (Growth),"[2]; 1 hour, 25 PPM",6.333
same,Log (Growth),"[2]; 1 hour, 50 PPM",6.000
same,Log (Growth),"[2]; 1 hour, 100 PPM",7.333
same,Log (Growth),"[2]; 1 hour, 200 PPM",8.000
same,Log (Growth),"[2]; 4 hours, 6.25 PPM",7.667
same,Log (Growth),"[2]; 4 hours, 12.5 PPM",6.667
same,Log (Growth),"[2]; 4 hours, 25 PPM",6.667
same,Log (Growth),"[2]; 4 hours, 50 PPM",6.667
same,Log (Growth),"[2]; 4 hours, 100 PPM",7.000
same,Log (Growth),"[2]; 4 hours, 200 PPM",7.000
same,Log (Growth),"[2]; 24 hours, 6.25 PPM",7.333
same,Log (Growth),"[2]; 24 hours, 12.5 PPM",7.333
same,Log (Growth),"[2]; 24 hours, 25 PPM",6.000
same,Log (Growth),"[2]; 24 hours, 50 PPM",6.000
same,Log (Growth),"[2]; 24 hours, 100 PPM",7.000
same,Log (Growth),"[2]; 24 hours, 200 PPM",7.000
same,Log (Growth),"[3]; 0 hours, 6.25 PPM",7.333
same,Log (Growth),"[3]; 0 hours, 12.5 PPM",7.667
same,Log (Growth),"[3]; 0 hours, 25 PPM",7.333
same,Log (Growth),"[3]; 0 hours, 50 PPM",7.667
same,Log (Growth),"[3]; 0 hours, 100 PPM",8.000
same,Log (Growth),"[3]; 0 hours, 200 PPM",7.667
same,Log (Growth),"[3]; 1 hour, 6.25 PPM",7.000
same,Log (Growth),"[3]; 1 hour, 12.5 PPM",8.000
same,Log (Growth),"[3]; 1 hour, 25 PPM",7.667
same,Log (Growth),"[3]; 1 hour, 50 PPM",7.333
same,Log (Growth),"[3]; 1 hour, 100 PPM",8.000
same,Log (Growth),"[3]; 1 hour, 200 PPM",7.000
same,Log (Growth),"[3]; 4 hours, 6.25 PPM",7.000
same,Log (Growth),"[3]; 4 hours, 12.5 PPM",8.000
same,Log (Growth),"[3]; 4 hours, 25 PPM",7.000
same,Log (Growth),"[3]; 4 hours, 50 PPM",7.000
same,Log (Growth),"[3]; 4 hours, 100 PPM",7.667
same,Log (Growth),"[3]; 4 hours, 200 PPM",7.000
same,Log (Growth),"[3]; 24 hours, 6.25 PPM",7.333
same,Log (Growth),"[3]; 24 hours, 12.5 PPM",7.000
same,Log (Growth),"[3]; 24 hours, 25 PPM",7.333
same,Log (Growth),"[3]; 24 hours, 50 PPM",7.667
same,Log (Growth),"[3]; 24 hours, 100 PPM",8.000
same,Log (Growth),"[3]; 24 hours, 200 PPM",7.667
